Read-outs that look alike come from different tables or passages of the source.
Assays:
[1] = biological target: T1, PfGCN5 bromodomain (Plasmodium falciparum, UniProt Q8IB67); test: biochemical; format: binding; conditions: for Kd: PrOF NMR titration, for 9 average of W1454 and W1379, NS = non-saturating, read-out: PfGCN5 Kd; for Initial Mixture PfGCN5 PrOF NMR Δδ: hit mixture containing the fragment, 400 µM each fragment
Method: (§1) The screening workflow consists of two dependent steps: 1) a PrOF NMR screen of the 5FW-labeled proteins and a cocktail of 4–5 fragments in a single NMR tube; 2) a ^1H CPMG NMR binding assay to deconvolute the hit mixtures for each protein (Figure 1). In the first step, a dual-protein PrOF NMR spectrum was obtained in which 5FW-PfGCN5, 5FW-BPTF (~ 50 µM each) and mixtures of fragments (400 µM individual fragment) were present in the same NMR tube. […] Chemical shift perturbations indicating a ligand binding event were based on a prior cutoff of Δδ ≥ 0.030 ppm as the definition for a hit mixture. This cutoff was based on a statistical analysis of chemical shift perturbations from a prior BRD4 D1 fragment screen and are described further in the experimental section and in Table S2.
(§2) PrOF NMR. PrOF NMR spectra were obtained on a Bruker Avance III HD 500 with the 5 mm Prodigy TCI inverse cryoprobe (^19F S:N 2000:1). […] The DMSO concentration for all experiments was kept constant at 1%. […] For the PrOF NMR screen, 5FW-BPTF and 5FW-PfGCN5 (35–40 µM in 50 mM phosphate, 100 mM NaCl, pH 7.4) were tested with mixtures of 4–5 fragments, where each individual fragment was 400 µM. […] A 10 Hz line broadening was applied. Titrations were fit to Equation (2), where p is the protein concentration and L is the ligand concentration. (2) Δδ=Δδmax × (Kd+P+L ) − (((Kd + P + L )^2) − 4PL)/2P
(§3) A PrOF NMR binding event is characterized as a change in chemical shift (Δδ) from the protein-only spectrum to the protein + fragment mixture spectrum. We used a prior cutoff of Δδ ≥ 0.030 ppm as the definition of a hit mixture, based on a statistical analysis of chemical shift perturbations from a prior BRD4 D1 fragment screen.

[2] = biological target: T1, PfGCN5 bromodomain; test: 1H CPMG NMR deconvolution of hit mixtures, PfGCN5; format: binding; conditions: 10 µM protein, 100 µM ligand; for 1H CPMG NMR % Drop in Resonance Intensity PfGCN5: for 9 from competition experiments (footnote a)
Method: (§4) The second step is a ^1H CPMG NMR deconvolution of the hit mixtures using the non-fluorine-labeled bromodomains. ^1H CPMG NMR employs a T2 filter to take advantage of the difference in transverse relaxation time between protein and small molecules to filter out the bound-state ligand(s). Unlike the PrOF NMR assay, a single protein is assayed in each experiment. A binding event is characterized by a decrease in ligand resonance intensity from the ligand alone spectrum to the ligand + protein spectrum. A hit is defined as a decrease in resonance intensity ≥ 20%. The ^1H CPMG NMR assay can be tuned by changing the protein or ligand concentration, filter length (Figure 1), or hit criteria depending on how stringent the desired hit rate is. The number of ^1H CPMG NMR deconvolution experiments is directly informed from the first step. If a mixture from the first step was only a hit for one protein, a single ^1H CPMG NMR deconvolution experiment is needed. If a mixture from the first step was a hit for both proteins, two separate ^1H CPMG NMR deconvolutions experiments are needed to determine the fragments that bind to each protein.
(§5) ^1H CPMG NMR. ^1H CPMG NMR screen data were acquired on Bruker Avance III HD 500 with the 5 mm Prodigy TCI cryoprobe inverse cryoprobe (^1H 2500:1 S/N). Competition ^1H CPMG NMR data were acquired on Bruker 700 MHz Avance with a CryoProbe 5 mm TXI (^1H S:N with H2O suppression (2mM sucrose) - 900:1) and excitation sculpting water suppression. Proteins were present at 10 µM in 50 mM phosphate, 100 mM NaCl, pH 7.4 in 100% D2O. In separate NMR tubes, a ^1H CPMG NMR pulse was applied to a 1) mixture of ligands (individual ligands present at 100 µM for the screen and 50 µM for competition experiments) and 2) ligands + protein. […] For the competition experiments, τ was increased to 4.0 ms.

[3] = biological target: BRD4 D1; conditions: cited from earlier work; for Kd: data from previous screen
[4] = biological target: T2, BPTF bromodomain (Homo sapiens, UniProt Q12830); test: PrOF NMR (dual-protein screen of mixtures, titrations) with 5FW-BPTF; format: binding; set-up: against the bromodomains of BPTF and Plasmodium falciparum GCN5 (PfGCN5); his6; made in house; conditions: for Initial Mixture BPTF PrOF NMR Δδ: hit mixture containing the fragment, 400 µM each fragment
Method: as §1, §2, §3

[5] = biological target: T2, BPTF bromodomain; test: 1H CPMG NMR deconvolution of hit mixtures, BPTF; format: binding; set-up: deconvolution of the hit mixtures using the non-fluorine-labeled bromodomains; made in house; host or cells: E. coli BL21(DE3); conditions: 10 µM protein, 100 µM ligand; for 1H CPMG NMR % Drop in Resonance Intensity BPTF: for 9 from competition experiments (footnote a)
Method: as §4, §5

[6] = biological target: T1, PfGCN5 bromodomain; test: Competition 1H CPMG NMR with PfGCN5; format: binding; conditions: competitor at or above the protein concentration
Excerpt: The competition ^1H CPMG NMR and PrOF NMR assays were employed to further probe the binding mode of 9 to PfGCN5. […] At high concentrations, at or above the protein concentration, the competition maxed out at ~ 50% (Figure 2, Figure S10, Table S5). Conversely, TP-238 was able to compete 9 off from BPTF at low concentrations.
^1H CPMG NMR. ^1H CPMG NMR screen data were acquired on Bruker Avance III HD 500 with the 5 mm Prodigy TCI cryoprobe inverse cryoprobe (^1H 2500:1 S/N). Competition ^1H CPMG NMR data were acquired on Bruker 700 MHz Avance with a CryoProbe 5 mm TXI (^1H S:N with H2O suppression (2mM sucrose) - 900:1) and excitation sculpting water suppression. Proteins were present at 10 µM in 50 mM phosphate, 100 mM NaCl, pH 7.4 in 100% D2O. In separate NMR tubes, a ^1H CPMG NMR pulse was applied to a 1) mixture of ligands (individual ligands present at 100 µM for the screen and 50 µM for competition experiments) and 2) ligands + protein. For competition experiments, the ligands were used individually, and the competitor ligands were spiked into tube 2. ^1H CPMG NMR parameters for the screen: NS = 128, acquisition time = 2 s, τ = 2.5 ms, and L = 120. For the competition experiments, τ was increased to 4.0 ms.

[7] = biological target: T1, PfGCN5 bromodomain; test: 1H-15N HSQC NMR titration with PfGCN5; format: binding; conditions: 1H-15N HSQC titration (Figure S14); read-out: Kd PfGCN5
Excerpt: To cross-validate our findings, ^1H-^15N HSQC NMR was used to further examine the binding mode of 9 to PfGCN5 in the presence and absence of known ligands. The ^1H-^15N HSQC spectrum of PfGCN5 is unassigned. For ease of spectral interpretation, all resonances that were distinctly visible were assigned as 1-64. Fragment 9, GSK4027, and the acetylated peptide H2A.Z II K7,13ac were titrated against PfGCN5. At the highest ligand concentration, resonances with Δδ > x^− + 0.60*s, where x^− is the mean and s is the standard deviation at the highest concentration, were defined as significant. The correction factor of 0.60 is to compensate for only 60% of the resonances being usable for analysis. Titration of 9 with PfGCN5 gave linear and non-linear dose-dependent chemical shift perturbations. Of the five resonances with non-linear movement, only one (10) was considered to have significant movement. […] This affinity with the non-fluorine-labeled protein is similar but higher than the affinity determined by PrOF NMR. […]
^1H-^15N SOFAST HSQC.^1H-^15N SOFAST HSQC spectra were obtained on a Bruker 600 MHz Avance NEO with a CryoProbe 5 mm TCI (^1H, ^13C, ^15N, ^2H) w/ Z-gradient using Bruker’s IBS_SOFAST.x method with 32 scans, 0.05 s acquisition time, and 0.2 s delay. […] Data were processed with nmrDraw, nmrPipe, and NFRAM Sparky. Δδ^1H-^15N was calculated using Equation (3). […]

[8] = biological target: T2, BPTF bromodomain; conditions: cited from earlier work
[9] = PrOF NMR titration, NS = non-saturating, NB = no binding

T1 sequence (Q8IB67 entry or part of it): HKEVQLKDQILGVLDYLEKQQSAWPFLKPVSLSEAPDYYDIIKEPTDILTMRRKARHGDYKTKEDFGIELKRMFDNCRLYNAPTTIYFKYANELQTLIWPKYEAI

Compound | Kd [1] | Initial Mixture PfGCN5 PrOF NMR Δδ [1] | PfGCN5 CPMG % decrease [2] | 1H CPMG NMR % Drop in Resonance Intensity PfGCN5 [2] | Kd [3] | Initial Mixture BPTF PrOF NMR Δδ [4] | BPTF CPMG % decrease [5] | 1H CPMG NMR % Drop in Resonance Intensity BPTF [5] | also measured
CS(=O)(=O)N1CCC2(CC1)OC(=O)c1ccccc12 [Fragment 7] | 150 µM | +++ (+++ = 0.1 < Δδ < 0.199) | 100% | +++++ (+++++ = 100%) | > 400 µM | +++ (+++ = 0.1 < Δδ < 0.199) | 49% | ++ (++ = 40–59.9%) | Kd ([4]; PrOF NMR titration): > 1000 µM
CC(C)CNc1ncc([N+](=O)[O-])c(N)n1 [Fragment 5] |  | - (For PrOF NMR = Δδ < 0.029 ppm) |  |  | > 400 µM | ++ (++ = 0.050 < Δδ < 0.099) | 65% | +++ (+++60–80%) | Kd [4, 9]: > 1000 µM
Cc1nnc2c3ccccc3c(N[C@@H](C)[C@H](c3ccccc3)N(C)C)nn12 [L-Moses, reference compound] |  |  |  |  |  |  |  |  | competition maximum in 1H CPMG NMR competition with 9 [6]: ~ 50%
H2A.Z II K7,13ac: acetylated N-terminal tail peptide of a histone protein (AGGKAGKDSGKAKAK; acetyl-Lys7 and acetyl-Lys13 in mature numbering (UniProt K8 and K14); C-terminal amide expected from NovaSyn TGR resin) [reference compound] |  |  |  |  |  |  |  |  | Kd [7]: 670 µM
COC(=O)N1CCC(CNC(=O)c2ccco2)CC1 [Fragment 2] | 360 µM | +++ (+++ = 0.1 < Δδ < 0.199) | 100% | +++++ (+++++ = 100%) | 450 µM | ++ (++ = 0.050 < Δδ < 0.099) |  |  | 
CN1C[C@H](Nc2cnn(C)c(=O)c2Br)C[C@H](c2ccccc2)C1 [GSK4027, reference compound] |  |  |  |  |  |  |  |  | PrOF NMR titration with 5FW-PfGCN5, result in words [1]: binds PfGCN5 strongly; competition maximum in 1H CPMG NMR competition with 9 [6]: ~ 50%
Cc1cccc(NC(=O)C2CCN(S(C)(=O)=O)CC2)c1 [Fragment 6] |  | - (For PrOF NMR = Δδ < 0.029 ppm) |  |  | > 400 µM | + (+ = 0.030 < Δδ < 0.049) | 25% | + (+ = 20–39.9%) | selectivity, binds PfGCN5 over BPTF ([1]; ratio of Kd values): > 6 fold; Bind BRD4? ([3]; Y/N, previous screen): not bind; Kd [4, 9]: 540 µM
H2A.Z II K7,13ac peptide N-terminal tail (from UniProt Q71UI9) |  |  |  |  |  |  |  |  | Kd [8]: 310 µM
CCC(=O)NCc1nccc(N(C)C)n1 [Fragment 3] | > 1000 µM | ++++ (++++ = Δδ > 0.2) | 82% | ++++ (++++ = 80–99.9%) | > 400 µM | - (For PrOF NMR = Δδ < 0.029 ppm) |  |  | 
N#Cc1cccc(C(=O)NC2CCC3OCCOC3C2)c1 (centres unmarked) [Fragment 1] | > 1000 µM | ++ (++ = 0.050 < Δδ < 0.099) | 100% | +++++ (+++++ = 100%) | > 400 µM | - (For PrOF NMR = Δδ < 0.029 ppm) |  |  | 
Cc1ccc2c(C#N)c(N)sc2c1 [Fragment 4] |  | - (For PrOF NMR = Δδ < 0.029 ppm) |  |  | > 400 µM | + (+ = 0.030 < Δδ < 0.049) | 100% | +++++ (+++++ = 100%) | BPTF Kd [4, 9]: no binding; Kd [4, 9]: > 1000 µM

— paper PMC7504435, “Combined Protein- and Ligand-Observed NMR Workflow to Screen Fragment Cocktails against Multiple Proteins: A Case Study Using Bromodomains” (Molecules, 2020)
